Reference: US7935824B2, “Ethylenediamine derivatives” (Daiichi Pharmaceutical Co., Ltd., priority 2000, dated 2011)
Counter-ions that a name gives are not always drawn.

Target: T1, human FXa (Homo sapiens, UniProt P00742)
T1 construct: purchased Cosmobio ERL HFXa-1011
Assay: Determination of FXa-inhibiting effect (IC50 value), chromogenic substrate S2222
Format: biochemical
Details: 0.05 U/ml human FXa, substrate S2222, absorbance at 405 nm, room temperature, pH 7.4 buffer

T1 sequence (P00742 235-488 limits assumed): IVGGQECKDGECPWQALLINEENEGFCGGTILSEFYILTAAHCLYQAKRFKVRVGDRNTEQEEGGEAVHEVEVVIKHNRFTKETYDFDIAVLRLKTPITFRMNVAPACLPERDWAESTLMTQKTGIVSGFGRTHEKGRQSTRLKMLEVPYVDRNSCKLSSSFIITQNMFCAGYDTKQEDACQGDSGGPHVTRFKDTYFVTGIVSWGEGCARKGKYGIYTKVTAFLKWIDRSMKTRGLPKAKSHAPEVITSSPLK
T1 sequence (P00742 41-179 partner limits assumed): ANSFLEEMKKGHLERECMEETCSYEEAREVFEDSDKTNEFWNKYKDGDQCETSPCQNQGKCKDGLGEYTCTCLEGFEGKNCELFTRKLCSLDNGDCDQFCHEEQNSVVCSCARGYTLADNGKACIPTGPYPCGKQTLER

IC50 [nM]	Compound
2.7	CC(C)(CO)N1CCc2nc(C(=O)N[C@@H]3CC(CO)C[C@H]3NC(=O)c3cc4cc(Cl)ccc4[nH]3)sc2C1 (single isomer, unassigned; stereoisomer b) [Example 70, (1R*,2R*)-N^1-[(5-Chloroindol-2-yl)carbonyl]-N^2-[5-(1-dimethyl-2-hydroxyethyl)-4,5,6,7-tetrahydrothiazolo-[5,4-c]pyridin-2-yl)carbonyl]-4-hydroxymethyl-1,2-cyclopentanediamine hydrochloride (Stereoisomer B)]
3.3	CN1CCc2nc(C(=O)N[C@@H]3C[C@@H](CO)CC[C@H]3NC(=O)c3cc4cc(Cl)ccc4[nH]3)sc2C1 [Example 176, (1R,2R,4S)—N^1-[(5-Chloroindol-2-yl)carbonyl]-4-hydroxymethyl-N^2-[(5-methyl-4,5,6,7-tetrahydrothiazolo[5,4-c]pyridin-2-yl)carbonyl]-1,2-cyclohexanediamine]
92	CN1CCc2nc(C(=O)N[C@@H]3CCCC[C@@H]3NC(=O)c3cc4cc(Br)ccc4[nH]3)sc2C1 (racemic) [Example 15, (±)-cis-N^1-[(5-Bromoindol-2-yl)carbonyl]-N^2-[(5-methyl-4,5,6,7-tetrahydrothiazolo[5,4-c]pyridin-2-yl)carbonyl]-1,2-cyclohexanediamine hydrochloride]
83	CN1CCc2nc(C(=O)N[C@@H]3CCCC[C@@H]3NC(=O)c3ccc4cc(Cl)ccc4c3)sc2C1 (racemic) [Example 10, (±)-cis-N^1-[(6-Chloronaphthalen-2-yl)carbonyl]-N^2-[(5-methyl-4,5,6,7-tetrahydrothiazolo[5,4-c]pyridin-2-yl)-carbonyl]-1,2-cyclohexanediamine hydrochloride]
4.1	CC(C)N1CCc2nc(C(=O)N[C@@H]3CC(CO)C[C@H]3NC(=O)c3cc4cc(Cl)ccc4[nH]3)sc2C1 (single isomer, unassigned; stereoisomer b) [Example 68, (1R*,2R*)-N^1-[(5-Chloroindol-2-yl)carbonyl]-4-hydroxymethyl-N^2-[(5-isopropyl-4,5,6,7-tetrahydro-thiazolo[5,4-c]pyridin-2-yl)carbonyl]-1,2-cyclopentanediamine hydrochloride (Stereoisomer B)]
1.4	(±)-cis-N^1(or N^2)-[(5-Chloroindol-2-yl)carbonyl]-4,4-(1,2-ethylenedioxy)-N^2(or N^1)-[(5-methyl-4,5,6,7-tetrahydrothiazolo[5,4-c]pyridin-2-yl)carbonyl]-1,2-cyclohexanediamine [Example 167]
36	CN1Cc2nc(C(=O)N[C@@H]3CCCC[C@@H]3NC(=O)c3cc4cc(Cl)ccc4[nH]3)sc2C1 (racemic) [Example 41, (±)-cis-N^1-[(5-Chloroindol-2-yl)carbonyl]-N^2-[(5-methyl-4,6-dihydro-5H-pyrrolo[3,4-d]thiazol-2-yl)carbonyl]-1,2-cyclohexanediamine hydrochloride]

Compound	IC50 [nM]
CN1CCc2nc(C(=O)N[C@@H]3CCC[C@H]3NC(=O)c3cc4cc(Cl)ccc4[nH]3)sc2C1 (racemic) [Example 3, (±)-trans-N^1-[(5-Chloroindol-2-yl)carbonyl]-N^2-[(5-methyl-4,5,6,7-tetrahydrothiazolo[5,4-c]pyridin-2-yl)carbonyl]-1,2-cyclopentanediamine hydrochloride]	86
